Measured values published in patent US8222416B2, “Azaindole glucokinase activators” (Hoffmann-La Roche Inc., priority 2009, dated 2012).

target: T1, Recombinant human liver GK1 (GST-GK) (Homo sapiens, UniProt P35557); experiment: In vitro glucokinase activity assay (G6PDH-coupled, NADH, OD340); assay type: biochemical; conditions: concentration of activator that produced a 50% increase in the activity of GK; 5 mM D-glucose, 30° C.
T1 construct: made in house; host or cells: E. coli
T1 sequence (P35557 1-466 isoform P35557-2): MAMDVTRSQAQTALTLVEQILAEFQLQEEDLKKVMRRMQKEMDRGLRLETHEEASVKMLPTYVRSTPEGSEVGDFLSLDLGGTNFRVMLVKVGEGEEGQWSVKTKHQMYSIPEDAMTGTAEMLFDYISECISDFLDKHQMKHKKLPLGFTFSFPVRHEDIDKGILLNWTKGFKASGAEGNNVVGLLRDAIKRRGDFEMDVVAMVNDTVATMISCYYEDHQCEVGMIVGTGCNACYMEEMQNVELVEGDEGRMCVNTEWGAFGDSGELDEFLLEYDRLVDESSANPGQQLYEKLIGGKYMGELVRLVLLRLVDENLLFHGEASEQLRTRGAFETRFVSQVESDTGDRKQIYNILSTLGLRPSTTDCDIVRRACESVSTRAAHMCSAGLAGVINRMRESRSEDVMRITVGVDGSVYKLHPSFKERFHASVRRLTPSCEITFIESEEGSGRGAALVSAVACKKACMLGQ
Protocol: Glucokinase In Vitro Assay Protocol: Glucokinase (GK) was assayed by coupling the production of glucose-6-phosphate to the generation of NADH with glucose-6-phosphate dehydrogenase (G6PDH, 0.75-1 kunits/mg; Boehringer Mannheim, Indianapolis, Ind.) from Leuconostoc mesenteroides as the coupling enzyme (Scheme 2).
Recombinant human liver GK1 was expressed in E. coli as a glutathione S-transferase fusion protein (GST-GK) [Liang et al, 1995] and was purified by chromatography over a glutathione-Sepharose 4B affinity column using the procedure provided by the manufacturer (Amersham Pharmacia Biotech, Piscataway, N.J.).
The assay was conducted at 30° C. in a flat bottom 96-well tissue culture plate from Costar (Cambridge, Mass.) with a final incubation volume of 120 μL. The incubation reaction contained the following: 25 mM Hepes buffer (pH 7.1), 25 mM KCl, 5 mM D-glucose, 1 mM ATP, 1.8 mM NAD, 2 mM MgCl2, 1 μM sorbitol-6-phosphate, 1 mM dithiothreitol, test drug or 10% dimethylsulfoxide, ˜7 units/ml G6PDH, and GK (see below). All organic reagents were >98% pure and were from Boehringer Mannheim with the exceptions of D-glucose and Hepes which were from Sigma Chemical Co, St Louis, Mo. Test compounds were dissolved in dimethylsulfoxide and were added to the incubation reaction minus GST-GK in a volume of 12 μL to yield a final dimethylsulfoxide concentration of 10%. This mix was pre-incubated in the temperature controlled chamber of a SPECTRAmax 250 microplate spectrophotometer (Molecular Devices Corporation, Sunnyvale, Calif.) for 10 minutes to allow temperature equilibrium and then the reaction was started by the addition of 20 μL GST-GK.
After addition of enzyme, the increase in optical density (OD) at 340 nm was monitored spectrophotometrically to determine the rate of change (OD340 per min). The GK activity (OD340/min) in control wells (10% dimethylsulfoxide minus GK activators) was compared with the activity in wells containing test GK activators, and the concentration of activator that produced a 50% increase in the activity of GK, i.e., the SC1.5, was calculated.

SC1.5 [µM] | Compound
2.4 | CCOc1ccc(C(CC2CCCC2)c2cc3cccnc3[nH]2)cn1 (centres unmarked) [Example 108, 2-[2-Cyclopentyl-1-(6-ethoxy-pyridin-3-yl)-ethyl]-1H-pyrrolo[2,3-b]pyridine]
10.9 | CC(O)c1cnc2[nH]c(C(CC3CCCC3)c3ccc(S(C)(=O)=O)cc3)cc2c1 (single isomer, unassigned) [Example 9, 1-{2-[2-Cyclopentyl-1-(4-methanesulfonyl-phenyl)-ethyl]-1H-pyrrolo[2,3-b]pyridin-5-yl}-ethanol]
1.4 | N#Cc1ccc(C(CC2CCCC2)c2cc3cccnc3[nH]2)cc1 (centres unmarked) [Example 43, 4-[2-Cyclopentyl-1-(1H-pyrrolo[2,3-b]pyridin-2-yl)-ethyl]-benzonitrile]
6.0 | c1cnc2[nH]c(C(CC3CCCC3)c3ccc4c(c3)OCCO4)cc2c1 (centres unmarked) [Example 62, 2-[2-Cyclopentyl-1-(2,3-dihydro-benzo[1,4]-dioxin-6-yl)-ethyl]-1H-pyrrolo[2,3-b]pyridine]
0.78 | CC(C)(O)c1ccc(C(CC2CCCC2)c2cc3cc(F)cnc3[nH]2)cc1 (centres unmarked) [Example 119, 2-{4-[2-Cyclopentyl-1-(5-fluoro-1H-pyrrolo[2,3-b]pyridin-2-yl)-ethyl]-phenyl}-propan-2-ol]
1.2 | COC(=O)c1cnc2[nH]c(C(CC3CCCC3)c3ccc(S(C)(=O)=O)cc3)cc2c1 (centres unmarked) [Example 54, 2-[2-Cyclopentyl-1-(4-methanesulfonyl-phenyl)-ethyl]-1H-pyrrolo[2,3-b]pyridin-5-carboxylic acid methyl ester]
0.719 | CC(C)Oc1cnc2[nH]c(C(CC3CCCC3)c3ccc(S(C)(=O)=O)cc3)cc2c1 (centres unmarked) [Example 18, 2-[2-Cyclopentyl-1-(4-methanesulfonyl-phenyl)-ethyl]-5-isopropoxy-1H-pyrrolo[2,3-b]pyridine]
4.2 | Cc1cc(C)cc(C(CC2CCCC2)c2cc3cccnc3[nH]2)c1 (centres unmarked) [Example 66, 2-[2-Cyclopentyl-1-(3.5-dimethyl-phenyl)-ethyl]-1H-pyrrolo[2,3-b]pyridine]
2.8 | COCc1cnc2[nH]c(C(CC3CCCC3)c3ccc(S(C)(=O)=O)cc3)cc2c1 (centres unmarked) [Example 41, 2-[2-Cyclopentyl-1-(4-methanesulfonyl-phenyl)-ethyl]-5-methoxymethyl-1H-pyrrolo[2,3-b]pyridine]
22.0 | COc1cnc2[nH]c(C(CC3CCCO3)c3ccc(S(C)(=O)=O)cc3)cc2c1 (single isomer, unassigned) [Example 25, 2-[1-(4-Methanesulfonyl-phenyl)-2-(tetrahydro-furan-2-yl)-ethyl]-5-methoxy-1H-pyrrolo[2,3-b]pyridine]
2.3 | CS(=O)(=O)c1ccc(C(CC2CCCO2)c2cc3cccnc3[nH]2)cc1 (centres unmarked) [Example 71, 2-[1-(4-Methanesulfonyl-phenyl)-2-(tetrahydro-furan-2-yl)-ethyl]-1H-pyrrolo[2,3-b]pyridine]
3.4 | CS(=O)(=O)c1ccc(C(CC2CCCC2)c2cc3cc(CO)cnc3[nH]2)cc1 (centres unmarked) [Example 8, {2-[2-Cyclopentyl-1-(4-methanesulfonyl-phenyl)-ethyl]-1H-pyrrolo[2,3-b]pyridin-5-yl}-methanol]
0.587 | CS(=O)(=O)c1ccc(C(CC2CCCC2)c2cc3cccnc3[nH]2)nc1 (centres unmarked) [Example 112, 2-[2-Cyclopentyl-1-(5-methanesulfonyl-pyridin-2-yl)-ethyl]-1H-pyrrolo[2,3-b]pyridine]
14.1 | c1cncc(C(CC2CCCC2)c2cc3cccnc3[nH]2)c1 (centres unmarked) [Example 110, 2-(2-Cyclopentyl-1-pyridin-3-yl-ethyl)-1H-pyrrolo[2,3-b]pyridine]
0.857 | CS(=O)(=O)c1ccc(C(O)(CC2CCCC2)c2cc3cccnc3[nH]2)cc1 (single isomer, unassigned) [Example 86, 2-Cyclopentyl-1-(4-methanesulfonyl-phenyl)-1-(1H-pyrrolo[2,3-b]pyridin-2-yl)-ethanol]
4.4 | CN(C)CC(=O)OCc1cnc2[nH]c(C(CC3CCCC3)c3ccc(S(C)(=O)=O)cc3)cc2c1 (centres unmarked) [Example 37, Dimethylamino-acetic acid 2-[2-cyclopentyl-1-(4-methanesulfonyl-phenyl)-ethyl]-1H-pyrrolo[2,3-b]pyridin-5-ylmethyl-ester]

SC1.5 [µM] | Compound
7.8 | Cc1cccc(C(CC(C)C)c2cc3cccnc3[nH]2)c1 (centres unmarked) [Example 130, 2-(3-Methyl-1-m-tolyl-butyl)-1H-pyrrolo[2,3-b]pyridine]
23.6 | CC(C)C(C)(O)c1ccc(C(CC2CCCC2)c2cc3cccnc3[nH]2)cc1 (centres unmarked) [Example 85, 2-{4-[2-Cyclopentyl-1-(1H-pyrrolo[2,3-b]pyridin-2-yl)-ethyl]-phenyl}-3-methyl-butan-2-ol]
2.8 | CN(C)c1ccc(C(CC2CCCC2)c2cc3cccnc3[nH]2)cc1 (centres unmarked) [Example 65, {4-[2-Cyclopentyl-1-(1H-pyrrolo[2,3-b]pyridin-2-yl)-ethyl]-phenyl}-dimethyl-amine]
0.458 | CC(C)c1ccc(C(CC2CCCC2)c2cc3cc(F)cnc3[nH]2)cc1 (centres unmarked) [Example 121, 2-[2-Cyclopentyl-1-(4-isopropyl-phenyl)-ethyl]-5-fluoro-1H-pyrrolo[2,3-b]pyridine]
9.5 | CC(C)(O)c1ccc([C@@H](CC2CCCC2)c2cc3cc(C(=O)O)cnc3[nH]2)cc1F (single isomer, unassigned) [Example 58]
0.18 | CC(C)(O)c1ccc(C(CC2CCCC2)c2cc3cc(F)cnc3[nH]2)cc1F (centres unmarked) [Example 103, 2-{4-[2-Cyclopentyl-1-(5-fluoro-1H-pyrrolo[2,3-b]pyridin-2-yl)-ethyl]-2-fluoro-phenyl}-propan-2-ol]
0.189 | CC(C)C[C@H](c1ccc(C(C)(C)O)c(F)c1)c1cc2cc(F)cnc2[nH]1 (single isomer, unassigned) [Example 106]
0.071 | CS(=O)(=O)c1ccc(C(CC2CCCC2)c2cc3cc(F)cnc3[nH]2)cc1 (centres unmarked) [Example 117, 2-[2-Cyclopentyl-1-(4-methanesulfonyl-phenyl)-ethyl]-5-fluoro-1H-pyrrolo[2,3-b]pyridine]
0.742 | CN(C)C(=O)COc1cnc2[nH]c([C@H](CC3CCCC3)c3ccc(S(C)(=O)=O)cc3)cc2c1 (single isomer, unassigned) [Example 14]
2.0 | COc1cnc2[nH]c(C(CC3CCCO3)c3ccc(S(C)(=O)=O)cc3)cc2c1 (single isomer, unassigned) [Example 24, 2-[1-(4-Methanesulfonyl-phenyl)-2-(tetrahydro-furan-2-yl)-ethyl]-5-methoxy-1H-pyrrolo[2,3-b]pyridine]
2.3 | CC(C)(O)c1ccc(C(CC2CCCC2)c2cc3cccnc3[nH]2)c(F)c1 (centres unmarked) [Example 94, 2-{4-[2-Cyclopentyl-1-(1H-pyrrolo[2,3-b]pyridin-2-yl)-ethyl]-3-fluoro-phenyl}-propan-2-ol]
0.512 | COC(=O)c1cnc2[nH]c([C@H](CC3CCCC3)c3ccc(S(C)(=O)=O)cc3)cc2c1 (single isomer, unassigned) [Example 55]
0.67 | CC(C)(O)c1ccc([C@@H](CC2CCOCC2)c2cc3cc(F)cnc3[nH]2)cc1F (single isomer, unassigned) [Example 98]
0.081 | CC(C)(O)c1ccc([C@@H](CC2CCCC2)c2cc3cc(F)cnc3[nH]2)cc1F (single isomer, unassigned) [Example 104]
3.4 | CS(=O)(=O)c1ccc(C(CC2CCCC2)c2cc3cc(CCO)cnc3[nH]2)cc1 (centres unmarked) [Example 36, 2-{2-[2-Cyclopentyl-1-(4-methanesulfonyl-phenyl)-ethyl]-1H-pyrrolo[2,3-b]pyridin-5-yl}-ethanol]
2.8 | CC(C)(CO)Oc1cnc2[nH]c(C(CC3CCCC3)c3ccc(S(C)(=O)=O)cc3)cc2c1 (centres unmarked) [Example 28, 2-{2-[2-Cyclopentyl-1-(4-methanesulfonyl-phenyl)-ethyl]-1H-pyrrolo[2,3-b]pyridin-5-yloxy}-2-methyl-propan-1-ol]
